# Literature values, collected in patent US20070196528A1, “Cosmetic composition based on caper flower bud extract” (GATTEFOSSE S.A.S., priority 2004, published 2007).
# Test system: oedemas in rats
# Conditions: Pharmazie 43 (1988); cited from earlier work
row,Compound,Anti-inflammatory activity
1,CC(C)=CCC/C(C)=C/CC/C(C)=C/CC/C(C)=C/CC/C(C)=C\CC/C(C)=C\CC/C(C)=C\CC/C(C)=C\CC/C(C)=C\CC/C(C)=C\CC/C(C)=C\CC/C(C)=C\CC/C(C)=C\CO [Cappaprenol-13],providing this anti-inflammatory activity
2,CC(C)=CCC/C(C)=C/CC/C(C)=C/CC/C(C)=C/CC/C(C)=C/CC/C(C)=C/CC/C(C)=C/CC/C(C)=C/CC/C(C)=C/CC/C(C)=C/CC/C(C)=C/CC/C(C)=C/CC/C(C)=C/CC/C(C)=C/CO [Cappaprenol-14],providing this anti-inflammatory activity
3,Cappaprenol-12,providing this anti-inflammatory activity
